Tests used:
[1] = biological target: Cyclin-dependent kinase 5 (Homo sapiens, UniProt Q00535); experiment: Selectivity interaction (ActivX KiNativ screen (kinase selectivity in THP-1 cell lysates)) EUB0000639a CDK5; format: subcellular; details: lysate
[2] = biological target: Tyrosine-protein kinase Fer (Homo sapiens) (UniProt P16591); experiment: Selectivity interaction (Kinase panel (Invitrogen)) EUB0000639a FER; details: at 200 nM
[3] = biological target: Serine/threonine-protein kinase MARK2 (Homo sapiens) (UniProt Q7KZI7); experiment: Selectivity interaction (ActivX KiNativ screen (kinase selectivity in THP-1 cell lysates)) EUB0000639a MARK2; format: subcellular; details: lysate, at 0.04 µM
[4] = biological target: T1, Serine/threonine-protein kinase D2 (Homo sapiens) (UniProt Q9BZL6); experiment: Selectivity interaction (ActivX KiNativ screen (kinase selectivity in THP-1 cell lysates)) EUB0000639a PRKD2; format: subcellular; details: lysate, at 0.04 µM
T1 sequence (whole entry): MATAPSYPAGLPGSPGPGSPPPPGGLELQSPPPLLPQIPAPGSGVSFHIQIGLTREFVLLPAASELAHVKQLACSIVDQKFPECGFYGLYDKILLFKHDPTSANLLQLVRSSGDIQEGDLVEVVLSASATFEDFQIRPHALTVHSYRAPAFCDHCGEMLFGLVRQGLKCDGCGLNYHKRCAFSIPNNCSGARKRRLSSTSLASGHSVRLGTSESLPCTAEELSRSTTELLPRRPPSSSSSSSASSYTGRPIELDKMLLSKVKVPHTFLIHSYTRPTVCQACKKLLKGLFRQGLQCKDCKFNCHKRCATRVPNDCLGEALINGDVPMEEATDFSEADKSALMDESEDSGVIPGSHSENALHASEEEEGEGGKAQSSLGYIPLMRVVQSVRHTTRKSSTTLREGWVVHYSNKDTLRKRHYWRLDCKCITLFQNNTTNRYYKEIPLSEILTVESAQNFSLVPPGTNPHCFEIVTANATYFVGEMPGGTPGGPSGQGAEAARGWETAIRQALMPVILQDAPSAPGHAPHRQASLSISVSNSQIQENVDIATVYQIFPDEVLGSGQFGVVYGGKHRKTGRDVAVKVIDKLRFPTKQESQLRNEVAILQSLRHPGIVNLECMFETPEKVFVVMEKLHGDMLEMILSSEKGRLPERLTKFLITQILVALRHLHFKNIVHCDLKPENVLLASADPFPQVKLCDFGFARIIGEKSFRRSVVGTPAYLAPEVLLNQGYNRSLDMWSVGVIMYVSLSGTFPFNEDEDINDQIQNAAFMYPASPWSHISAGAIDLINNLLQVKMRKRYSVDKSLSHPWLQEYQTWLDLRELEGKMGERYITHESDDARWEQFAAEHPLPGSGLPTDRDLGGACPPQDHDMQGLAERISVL

[5] = biological target: Ribosomal protein S6 kinase alpha-3 (Homo sapiens, UniProt P51812); experiment: Selectivity interaction (Kinase panel (literature)) EUB0001199aCl RPS6KA3; details: at 1 µM
[6] = biological target: cAMP-dependent protein kinase catalytic subunit gamma (Homo sapiens) (UniProt P22612); experiment: Selectivity interaction (LanthaScreen Eu Kinase Binding Assay) EUB0001632a PRKACG; details: at 10 µM
[7] = biological target: Macrophage-stimulating protein receptor (Homo sapiens, UniProt Q04912); experiment: Selectivity interaction (KinomeScan (DiscoverX)) EUB0000695a MST1R; details: at 100 nM
[8] = biological target: Calcium/calmodulin-dependent protein kinase type II subunit gamma (Homo sapiens) (UniProt Q13555); experiment: Selectivity interaction (ProQinase) EUB0000171b CAMK2G
[9] = biological target: Mitotic checkpoint serine/threonine-protein kinase BUB1 (Homo sapiens, UniProt O43683); experiment: Selectivity interaction (KinomeScan (DiscoverX)) EUB0001619a BUB1; details: at 1 µM
[10] = biological target: T1, Serine/threonine-protein kinase D2 (Homo sapiens); experiment: Selectivity interaction (KinomeScan (DiscoverX)) EUB0000618a PRKD2; details: at 10 µM
[11] = biological target: T2, Inhibitor of nuclear factor kappa-B kinase subunit epsilon (Homo sapiens) (UniProt Q14164); experiment: Selectivity interaction (Kinase panel (KiNativ target engagement assay in Jurkat cells)) EUB0001635a IKBKE; format: cell-based; details: at 1 µM
T2 sequence (whole entry): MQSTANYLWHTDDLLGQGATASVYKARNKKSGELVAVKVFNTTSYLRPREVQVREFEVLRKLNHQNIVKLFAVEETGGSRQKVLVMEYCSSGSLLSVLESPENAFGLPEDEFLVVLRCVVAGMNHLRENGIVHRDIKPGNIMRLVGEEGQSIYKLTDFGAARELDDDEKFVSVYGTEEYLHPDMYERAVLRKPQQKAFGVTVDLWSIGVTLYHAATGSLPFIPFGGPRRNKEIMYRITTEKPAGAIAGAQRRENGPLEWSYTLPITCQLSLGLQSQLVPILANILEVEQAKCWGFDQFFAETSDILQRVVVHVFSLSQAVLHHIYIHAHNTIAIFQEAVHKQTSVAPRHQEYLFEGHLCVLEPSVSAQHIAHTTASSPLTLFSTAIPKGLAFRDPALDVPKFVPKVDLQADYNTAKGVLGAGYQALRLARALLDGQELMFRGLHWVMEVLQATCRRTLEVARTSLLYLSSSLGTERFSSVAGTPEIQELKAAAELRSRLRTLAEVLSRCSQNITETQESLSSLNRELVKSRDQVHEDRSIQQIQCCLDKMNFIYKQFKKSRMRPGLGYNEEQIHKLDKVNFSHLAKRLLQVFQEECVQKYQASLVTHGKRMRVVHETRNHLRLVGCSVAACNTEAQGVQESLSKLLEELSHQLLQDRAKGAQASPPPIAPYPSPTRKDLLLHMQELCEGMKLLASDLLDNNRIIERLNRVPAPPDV

[12] = biological target: T3, N-lysine methyltransferase KMT5A (Homo sapiens) (UniProt Q9NQR1); experiment: Selectivity interaction (Methyltransferase screen (Scintillation proximity assays)) EUB0000255b SETD8
T3 sequence (whole entry): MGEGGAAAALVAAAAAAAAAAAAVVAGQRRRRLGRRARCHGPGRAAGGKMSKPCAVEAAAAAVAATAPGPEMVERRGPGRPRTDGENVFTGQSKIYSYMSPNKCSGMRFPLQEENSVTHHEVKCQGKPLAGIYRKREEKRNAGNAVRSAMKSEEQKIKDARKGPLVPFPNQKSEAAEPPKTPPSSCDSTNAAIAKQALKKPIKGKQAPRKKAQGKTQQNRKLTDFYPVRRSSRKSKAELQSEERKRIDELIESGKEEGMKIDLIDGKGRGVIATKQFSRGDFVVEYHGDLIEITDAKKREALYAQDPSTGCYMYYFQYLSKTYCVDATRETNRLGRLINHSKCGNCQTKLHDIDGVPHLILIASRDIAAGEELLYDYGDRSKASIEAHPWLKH

Cyclin-dependent kinase 5, sequence (Q00535 whole entry, looked up): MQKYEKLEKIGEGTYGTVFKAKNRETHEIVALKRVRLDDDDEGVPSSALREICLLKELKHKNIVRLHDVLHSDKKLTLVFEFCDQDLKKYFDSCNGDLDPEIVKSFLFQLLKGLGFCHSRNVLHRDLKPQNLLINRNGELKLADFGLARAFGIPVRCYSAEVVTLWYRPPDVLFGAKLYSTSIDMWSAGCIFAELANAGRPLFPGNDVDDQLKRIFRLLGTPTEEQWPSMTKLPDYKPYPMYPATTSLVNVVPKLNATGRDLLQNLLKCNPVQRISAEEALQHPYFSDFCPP
Calcium/calmodulin-dependent protein kinase type II subunit gamma (Homo sapiens), sequence (Q13555 whole entry): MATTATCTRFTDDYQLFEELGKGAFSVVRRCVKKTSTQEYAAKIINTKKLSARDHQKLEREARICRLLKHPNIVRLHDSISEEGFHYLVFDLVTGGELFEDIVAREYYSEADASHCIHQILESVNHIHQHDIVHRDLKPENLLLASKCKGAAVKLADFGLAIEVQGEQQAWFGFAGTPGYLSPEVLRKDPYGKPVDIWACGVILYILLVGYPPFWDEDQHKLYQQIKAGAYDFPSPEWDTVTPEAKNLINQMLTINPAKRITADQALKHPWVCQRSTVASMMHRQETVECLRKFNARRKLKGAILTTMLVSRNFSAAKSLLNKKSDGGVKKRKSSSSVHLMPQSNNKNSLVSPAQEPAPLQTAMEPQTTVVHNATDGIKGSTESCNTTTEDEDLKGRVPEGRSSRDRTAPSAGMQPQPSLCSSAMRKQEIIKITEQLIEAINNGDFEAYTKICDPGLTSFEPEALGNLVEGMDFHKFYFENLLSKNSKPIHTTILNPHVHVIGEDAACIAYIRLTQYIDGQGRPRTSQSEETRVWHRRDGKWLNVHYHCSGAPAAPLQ
Tyrosine-protein kinase Fer (Homo sapiens), sequence (P16591 whole entry, looked up): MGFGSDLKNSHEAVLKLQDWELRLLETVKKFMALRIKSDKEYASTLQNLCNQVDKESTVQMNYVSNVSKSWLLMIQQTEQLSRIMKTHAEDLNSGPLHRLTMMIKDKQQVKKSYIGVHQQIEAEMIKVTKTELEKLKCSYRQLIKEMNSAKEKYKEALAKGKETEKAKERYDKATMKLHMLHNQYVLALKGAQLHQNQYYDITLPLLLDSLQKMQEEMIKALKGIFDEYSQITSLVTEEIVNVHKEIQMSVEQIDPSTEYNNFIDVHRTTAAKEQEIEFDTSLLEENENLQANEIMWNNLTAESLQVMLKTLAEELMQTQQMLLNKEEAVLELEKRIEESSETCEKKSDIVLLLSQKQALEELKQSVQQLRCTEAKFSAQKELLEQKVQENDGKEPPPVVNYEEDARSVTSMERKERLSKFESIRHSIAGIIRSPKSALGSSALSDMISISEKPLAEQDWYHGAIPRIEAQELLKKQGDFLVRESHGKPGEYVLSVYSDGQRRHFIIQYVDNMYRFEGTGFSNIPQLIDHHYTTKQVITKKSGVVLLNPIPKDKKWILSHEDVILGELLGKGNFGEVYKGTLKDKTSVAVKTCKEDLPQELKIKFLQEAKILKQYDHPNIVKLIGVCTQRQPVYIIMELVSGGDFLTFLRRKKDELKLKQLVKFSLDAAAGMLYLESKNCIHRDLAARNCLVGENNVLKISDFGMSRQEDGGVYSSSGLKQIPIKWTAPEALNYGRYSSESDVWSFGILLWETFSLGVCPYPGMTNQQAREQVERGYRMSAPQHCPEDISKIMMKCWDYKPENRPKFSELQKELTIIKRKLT
Ribosomal protein S6 kinase alpha-3, sequence (P51812 whole entry): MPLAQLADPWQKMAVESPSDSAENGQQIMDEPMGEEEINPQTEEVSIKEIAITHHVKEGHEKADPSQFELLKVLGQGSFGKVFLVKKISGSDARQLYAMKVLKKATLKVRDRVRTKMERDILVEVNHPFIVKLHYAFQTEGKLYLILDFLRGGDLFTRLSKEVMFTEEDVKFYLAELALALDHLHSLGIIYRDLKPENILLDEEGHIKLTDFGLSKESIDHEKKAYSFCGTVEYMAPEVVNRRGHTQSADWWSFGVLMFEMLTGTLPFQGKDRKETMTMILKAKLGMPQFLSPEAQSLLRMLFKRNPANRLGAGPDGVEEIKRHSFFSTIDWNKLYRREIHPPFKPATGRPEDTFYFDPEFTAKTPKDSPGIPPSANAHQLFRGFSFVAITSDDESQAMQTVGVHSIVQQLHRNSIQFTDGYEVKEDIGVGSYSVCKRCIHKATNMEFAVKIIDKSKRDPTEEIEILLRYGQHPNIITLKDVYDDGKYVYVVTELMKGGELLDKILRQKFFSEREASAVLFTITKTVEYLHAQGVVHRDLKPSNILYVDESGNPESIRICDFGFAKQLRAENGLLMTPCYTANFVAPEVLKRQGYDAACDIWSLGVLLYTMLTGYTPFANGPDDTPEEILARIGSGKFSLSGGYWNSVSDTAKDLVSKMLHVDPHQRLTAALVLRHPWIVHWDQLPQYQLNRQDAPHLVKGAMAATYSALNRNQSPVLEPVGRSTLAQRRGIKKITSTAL
Macrophage-stimulating protein receptor, sequence (Q04912 25-304 limits assumed): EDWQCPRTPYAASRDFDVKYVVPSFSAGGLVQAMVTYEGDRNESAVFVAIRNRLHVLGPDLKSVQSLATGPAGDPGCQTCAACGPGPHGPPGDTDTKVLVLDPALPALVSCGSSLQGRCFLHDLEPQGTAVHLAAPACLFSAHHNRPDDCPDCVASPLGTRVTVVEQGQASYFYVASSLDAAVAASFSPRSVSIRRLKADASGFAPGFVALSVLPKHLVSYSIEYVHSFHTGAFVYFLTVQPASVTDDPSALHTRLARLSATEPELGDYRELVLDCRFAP
Macrophage-stimulating protein receptor, sequence (Q04912 310-1400 limits assumed): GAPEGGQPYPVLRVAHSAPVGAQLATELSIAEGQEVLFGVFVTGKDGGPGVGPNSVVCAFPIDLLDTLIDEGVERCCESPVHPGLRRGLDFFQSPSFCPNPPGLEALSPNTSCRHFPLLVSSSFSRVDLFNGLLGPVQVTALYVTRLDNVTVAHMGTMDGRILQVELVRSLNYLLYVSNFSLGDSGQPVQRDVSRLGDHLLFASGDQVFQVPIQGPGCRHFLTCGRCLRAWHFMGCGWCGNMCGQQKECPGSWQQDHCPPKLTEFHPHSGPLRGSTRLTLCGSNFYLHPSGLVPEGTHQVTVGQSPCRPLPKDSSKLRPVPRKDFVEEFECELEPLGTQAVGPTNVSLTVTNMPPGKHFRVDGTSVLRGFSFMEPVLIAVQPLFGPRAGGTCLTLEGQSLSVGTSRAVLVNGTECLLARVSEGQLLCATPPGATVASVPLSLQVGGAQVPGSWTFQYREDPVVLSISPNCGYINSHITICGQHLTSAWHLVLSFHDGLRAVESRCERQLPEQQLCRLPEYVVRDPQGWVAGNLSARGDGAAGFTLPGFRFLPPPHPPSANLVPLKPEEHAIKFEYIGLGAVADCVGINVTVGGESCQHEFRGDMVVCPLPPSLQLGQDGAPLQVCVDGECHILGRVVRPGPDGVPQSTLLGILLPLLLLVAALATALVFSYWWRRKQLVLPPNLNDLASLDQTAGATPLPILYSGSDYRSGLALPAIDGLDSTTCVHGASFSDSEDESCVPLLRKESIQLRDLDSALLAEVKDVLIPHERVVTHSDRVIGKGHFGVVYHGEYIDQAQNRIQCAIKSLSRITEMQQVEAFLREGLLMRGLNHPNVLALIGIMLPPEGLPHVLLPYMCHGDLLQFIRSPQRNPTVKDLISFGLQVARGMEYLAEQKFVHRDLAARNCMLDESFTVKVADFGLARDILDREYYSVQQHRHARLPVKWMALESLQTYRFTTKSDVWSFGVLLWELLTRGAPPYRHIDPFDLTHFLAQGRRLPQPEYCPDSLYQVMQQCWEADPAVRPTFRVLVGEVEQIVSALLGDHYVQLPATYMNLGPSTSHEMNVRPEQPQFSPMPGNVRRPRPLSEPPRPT
cAMP-dependent protein kinase catalytic subunit gamma (Homo sapiens), sequence (P22612 2-351 limits assumed): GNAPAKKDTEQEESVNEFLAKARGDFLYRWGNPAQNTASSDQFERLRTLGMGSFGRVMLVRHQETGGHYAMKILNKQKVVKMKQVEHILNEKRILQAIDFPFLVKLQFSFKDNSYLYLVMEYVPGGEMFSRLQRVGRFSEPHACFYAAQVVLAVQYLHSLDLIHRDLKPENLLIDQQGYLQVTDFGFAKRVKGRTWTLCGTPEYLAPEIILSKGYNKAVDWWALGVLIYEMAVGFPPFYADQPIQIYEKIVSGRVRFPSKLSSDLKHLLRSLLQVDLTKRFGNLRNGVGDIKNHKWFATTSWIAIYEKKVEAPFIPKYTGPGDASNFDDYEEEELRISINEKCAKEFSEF
Serine/threonine-protein kinase MARK2 (Homo sapiens), sequence (Q7KZI7 whole entry): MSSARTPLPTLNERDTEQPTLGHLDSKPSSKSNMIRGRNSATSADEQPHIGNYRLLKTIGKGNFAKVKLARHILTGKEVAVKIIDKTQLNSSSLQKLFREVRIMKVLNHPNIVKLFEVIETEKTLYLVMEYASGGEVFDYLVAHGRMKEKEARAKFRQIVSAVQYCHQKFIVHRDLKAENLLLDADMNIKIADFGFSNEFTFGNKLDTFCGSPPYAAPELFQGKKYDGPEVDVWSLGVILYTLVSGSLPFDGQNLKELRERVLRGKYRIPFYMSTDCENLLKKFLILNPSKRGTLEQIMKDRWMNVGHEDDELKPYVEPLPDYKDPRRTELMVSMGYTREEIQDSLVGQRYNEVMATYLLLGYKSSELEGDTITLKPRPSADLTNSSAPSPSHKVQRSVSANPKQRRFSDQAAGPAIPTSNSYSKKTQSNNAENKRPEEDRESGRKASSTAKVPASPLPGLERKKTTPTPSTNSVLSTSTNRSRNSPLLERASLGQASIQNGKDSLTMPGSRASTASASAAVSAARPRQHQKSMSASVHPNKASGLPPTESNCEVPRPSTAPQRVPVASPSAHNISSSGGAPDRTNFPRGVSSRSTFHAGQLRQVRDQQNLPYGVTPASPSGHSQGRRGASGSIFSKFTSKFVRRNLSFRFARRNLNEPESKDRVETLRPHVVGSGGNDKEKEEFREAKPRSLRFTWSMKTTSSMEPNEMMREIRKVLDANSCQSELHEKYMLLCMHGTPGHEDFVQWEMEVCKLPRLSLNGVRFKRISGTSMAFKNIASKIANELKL

In the case of `CC[C@@H]1[C@H](F)C(=O)N[C@@H]1COc1nccc2cc(C(N)=O)c(OC)cc12` [ZIMLOVISERTIB], the % of inhibition ([1]; at 0.01 µM) is reported as 3.6%, the % of inhibition ([1]; at 0.04 µM) is reported as 3.9% and the % of inhibition ([1]; at 0.2 µM) is reported as -0.2%. It also gave a % of inhibition ([1]; at 1 µM) of 2.7%, a % of inhibition ([1]; at 5 µM) of -6.9% and a % of inhibition [2] of 9.46%. It also gave a % of inhibition [3] of 8.3% and a % of inhibition [4] of -3.5%.

In the case of `CN1Cc2nccc(-c3cn(C)nc3-c3ccc(F)cc3)c2C1=O`, the % of inhibition [5] is reported as 0%.

`Cn1cc(-n2cnc3c(NCc4nc5cc(Cl)c(Cl)cc5[nH]4)nc(N4CCOCC4)nc32)cn1` gave a % of inhibition [6] of -38.1%.

`Cc1cc(F)c(C(=O)Nc2cccc(-c3nncn3C(C)C)n2)cc1-n1cnc(C2CC2)c1` showed a % of control [7] of 100%.

`C=CC(=O)Nc1cccc(C(=O)Nc2ccc(Nc3cc(-c4[nH]c(SC)nc4C)ccn3)cc2)c1` gave a % of control ([8]; at 1 µM) of 81% and a % of control ([8]; at 5 µM) of 54%.

For `N#Cc1cccc(-c2c[nH]c3ncnc(N4CCOCC4)c23)c1`, the % of control [9] was 86%.

In the case of `O[C@H]1CC[C@H](Nc2ncc3nc(Nc4c(F)cc(F)cc4F)n([C@H]4CCOC4)c3n2)CC1`, the % of control [10] is reported as 77%.

In the case of `C=CC(=O)Nc1ccc(C(=O)Nc2[nH]nc3c2CN(C(=O)N[C@H](CN(C)C)c2ccccc2)C3(C)C)cc1`, the % of engagement ([11]; Selectivity number of off-targets 0.0, Selectivity number of targets 233.0, Source Knowledge https://www.sciencedirect.com/science/article/pii/S2451945619300674?via%3Dihub) is reported as 28.4% and the % of engagement [11] is reported as 32.7%.

`COCCN1CCC(c2cc(CN(C)C(=O)c3cccc(Oc4ccccc4)c3)ccn2)CC1` gave a % activity ([12]; at 1 µM) of over 95% and a % activity ([12]; at 10 µM) of over 85%.

From ChEMBL document CHEMBL5465560, “Selectivity Literature for EUbOPEN Chemogenomic Library” (2024)
